The conditions of data set [1]: cited from earlier work.
The test system of data set [2] is human whole blood. As to the kind of experiment: Whole blood in vitro thrombosis assay (collagen-coated microfluidic chip). Format: cell-based. On the procedure: Shear flow experiments of whole blood were performed with a Cellix Microfluidics System (Cellix, Dublin, Ireland) as previously described and outlined in additional methods.^41-43 The extent of platelet activation and adhesion to the collagen matrix was quantified using computer assisted tomographic analyses, as previously described.^40
Shear flow experiments of whole blood were performed with a Cellix Microfluidics System (Cellix, Dublin, Ireland) as previously described.^6-8 Before use, the micro channels of a Vena8 Fluoro+ biochip were coated with type 1 collagen (15 μL; 50 μg/mL) and each channel of the biochip then washed with PBS using the Mirus Nanopump. Images were taken with an HC Plan Apo 20X/0.7NA lens on a Leica DMI6000 inverted microscope equipped with an environmental chamber and a Hamamatsu ImagEM cooled CCD camera. […] Images of platelets adhering to the collagen matrix were recorded every 5 s. […] The extent of platelet activation and adhesion to the collagen matrix was quantified using computer assisted tomographic analyses as previously described.^5 Briefly, images of CD42b stained platelet thrombi were quantified using Image Pro plus software (Media Cybernetics, Rockville, Maryland, USA). The intensity threshold was chosen to select for specific staining and the integrated optical density (IOD, Area×Intensity) quantified. […]

The test system of data set [3] is C57BL/6J mice. As to the kind of experiment: Carotid artery FeCl3 injury thrombosis model. It counts as in vivo. The conditions noted are these: for rate of clot / thrombus formation / time to cessation of blood flow following arterial injury: 25 mg/kg i.p. vs vehicle (saline). On the procedure: Mice were used to causally test whether elevation in xylitol plasma levels results in enhancement in thrombosis potential. All mice were C57BL/6J and 12-14 weeks of age. All animal studies were approved by the Institutional Animal Care and Use Committee at the Cleveland Clinic (IRB 2019-2251).
The FeCl3-induced carotid artery injury model was performed using intravital fluorescence microscopy with continuous image capture monitoring, as previously described.^44 Time to cessation of blood flow through thrombus formation for all experiments was determined by visual inspection by two independent investigators.
The FeCl3-induced carotid artery injury model was performed as previously described.^9 BL/6J mice, both male and female, 12-14 weeks of age, were i.p. injected with vehicle (saline) or xylitol (25 mg/kg). The animals were anesthetized with 100 mg/kg ketamine+10 mg/kg xylazine and rhodamine 6G (100 μL; 0.5 mg/mL, catalogue #252433, Sigma, St. Louis, MO, USA) was injected into the right jugular vein for platelet labeling. The left carotid artery was then exposed, and an injury induced using a 1 mm^2 Whatman filter paper containing 10% FeCl3 (Catalogue #157740, Sigma, St. Louis, MO, USA) for 1 min. Thrombus formation in real time was monitored using intravital fluorescence microscopy equipped with video recording. Time to cessation of blood flow through thrombus formation for all experiments was determined by visual inspection by two independent investigators and animals were immediately euthanized after data acquisition.
The common carotid artery FeCl3 induced injury model was performed as previously described^54. 12-14 weeks old BL/6J mice were injected with vehicle (normal saline), erythritol (25 mg/kg) or 1,5-AHG (25 mg/kg) and anesthetized with 100 mg/kg ketamine+10 mg/kg xylazine. Rhodamine 6G (100 μL; 0.5 mg/mL, catalogue #252433, Sigma, St. Louis, MO, USA) was injected into the right jugular vein to label platelets. The left carotid artery was then injured with a Whatman filter paper of 1 mm^2 size containing 10% FeCl3 (Catalogue #157740, Sigma, St. Louis, MO, USA) for 1 min. Intravital fluorescence microscopy equipped with video recording was used to monitor thrombus formation in real time. Time to cessation of blood flow through clot formation for all studies was determined by visual inspection of captured video by two independent investigators in real time. Data for the in vivo thrombosis were collected by Streampix 7—Multiple Camera DVR Software (NorPix Inc, Montreal, Canada). Animals were immediately euthanized after data acquisition.

In data set [4] the test system is dogs. The conditions noted are these: dog, in vivo; cited from earlier work.

Molecules are shown by their SMILES.

In the case of `OC[C@@H](O)[C@@H](O)CO` [erythritol], the “well tolerated daily dose” value in data set [1] (digestive tolerance) is “up to 1 g/kg”. In data set [1] (in vivo), the “effect on blood sugar / insulin” value is “no short-term insulinemic or glycemic effects”; the “metabolism and excretion upon ingestion” value was “poorly metabolized and mostly excreted in the urine”. In addition, the “rate of collagen-dependent platelet adhesion and thrombus formation” value in data set [2] (erythritol (45 μM), physiological shear conditions) is listed as “significant enhancement”. For the same molecule, in data set [3], the “rate of clot / thrombus formation” value is “marked enhancement” and the “time to cessation of blood flow following arterial injury” value is on record as “significant reduction”.

`OC[C@@H](O)[C@H](O)[C@@H](O)CO` [xylitol]: the toxicity to dogs entry in data set [4] was “highly toxic”. Besides, the “effect on blood sugar / insulin” value in data set [1] (in vivo) is “negligible impact”. In data set [2] (xylitol, physiological shear flow), the “rate of collagen-dependent platelet adhesion and spreading” value is recorded as “substantially accelerated”. For the same molecule, in data set [3], the “rate of clot / thrombus formation” value is recorded as “marked increase” and the “time to cessation of blood flow following arterial injury” value is “significant reduction”. Further, the “plasma xylitol level at which heightened thrombosis potential was observed” value in data set [3] (animal model of thrombosis (FIG. 4B)) was 19 µM.

Source of the values: patent publication US20260219274A1, “POLYOL SWEETNERS AND CARDIOVASCULAR AND THROMBOTIC EVENT RISK” (THE CLEVELAND CLINIC FOUNDATION, priority 2023, published 2026).
